Measured values: ChEMBL document CHEMBL4417631, “Oral peptide inhibitors of interleukin-23 receptor and their use to treat inflammatory bowel diseases” (2017)
Where a SMILES comes first, the peptide text is derived from it. [ ]: non-standard residue; d: D form. hLeu = CC(C)CC[C@H](N)C(=O)O

Target: T1, Interleukin-23 receptor (Homo sapiens, UniProt Q5VWK5)
T1 sequence (Q5VWK5 whole entry): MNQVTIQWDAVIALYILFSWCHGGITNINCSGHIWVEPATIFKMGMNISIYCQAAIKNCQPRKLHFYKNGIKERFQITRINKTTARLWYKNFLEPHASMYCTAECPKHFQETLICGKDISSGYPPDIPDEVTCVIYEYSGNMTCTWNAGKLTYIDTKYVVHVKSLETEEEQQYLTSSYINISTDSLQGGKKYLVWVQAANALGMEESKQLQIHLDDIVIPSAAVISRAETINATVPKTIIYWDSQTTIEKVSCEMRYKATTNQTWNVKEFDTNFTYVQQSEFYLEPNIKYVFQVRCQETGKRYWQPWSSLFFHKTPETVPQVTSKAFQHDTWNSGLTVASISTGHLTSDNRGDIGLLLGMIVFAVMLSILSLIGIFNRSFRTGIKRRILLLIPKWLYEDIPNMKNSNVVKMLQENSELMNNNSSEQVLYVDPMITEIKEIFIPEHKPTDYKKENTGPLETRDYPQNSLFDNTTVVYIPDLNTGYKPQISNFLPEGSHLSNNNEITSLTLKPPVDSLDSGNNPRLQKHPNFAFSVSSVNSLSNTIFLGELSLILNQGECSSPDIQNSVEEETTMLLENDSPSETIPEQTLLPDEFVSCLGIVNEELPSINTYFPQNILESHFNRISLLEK
Assay: Inhibition of interleukin-23 binding to human interleukin-23 receptor incubated for 2 hrs by competitive binding ELISA

Row | SMILES | IC50 [nM]
1 | CCCCCCCCCCCCCCCC(=O)NCCCC[C@H](NC(=O)[C@H](Cc1c[nH]c2ccccc12)NC(=O)[C@H](Cc1ccc(O)cc1)NC(=O)[C@H](CS)NC(=O)[C@H](CCC(N)=O)NC(=O)[C@H](Cc1c[nH]c2ccccc12)NC(=O)[C@@H](NC(=O)[C@H](CCC(N)=O)NC(=O)[C@H](CS)NC(C)=O)[C@@H](C)O)C(=O)N[C@@H](CCC(=O)O)C(=O)N[C@@H](CC(N)=O)C(=O)NCC(N)=O | 4880
2 | CSCC[C@H](NC(=O)[C@H](Cc1c[nH]c2ccccc12)NC(=O)[C@H](CC(=O)O)NC(=O)[C@H](C)NC(=O)[C@@H](N)CS)C(=O)N[C@@H](CS)C(=O)N[C@@H](Cc1ccc(O)cc1)C(=O)N[C@@H](Cc1c[nH]c2ccccc12)C(=O)N[C@@H](Cc1cnc[nH]1)C(=O)N[C@@H](CCC(=O)O)C(=O)N[C@@H](Cc1ccc(O)cc1)C(=O)NCC(N)=O (H-CADWMCYWHEYG-NH2) | 500 to 1000
3 | C[C@@H](O)[C@H](NC(=O)[C@H](CCC(=O)O)NC(=O)[C@@H](N)CS)C(=O)N[C@@H](Cc1c[nH]c2ccccc12)C(=O)N[C@@H](CCC(=O)O)C(=O)N[C@@H](CS)C(=O)N[C@@H](Cc1ccc(O)cc1)C(=O)N[C@@H](Cc1c[nH]c2ccccc12)C(=O)N[C@@H](Cc1cnc[nH]1)C(=O)N[C@@H](CO)C(=O)N[C@@H](Cc1ccccc1)C(=O)N[C@@H](CO)C(N)=O (H-CETWECYWHSFS-NH2) | > 1000
4 | CC(=O)N[C@@H](CS)C(=O)N[C@@H](C)C(=O)N[C@@H](CC(=O)O)C(=O)N[C@@H](Cc1c[nH]c2ccccc12)C(=O)N[C@H](C(=O)N[C@@H](CS)C(=O)N[C@@H](Cc1ccc(O)cc1)C(=O)N[C@@H](Cc1c[nH]c2ccccc12)C(=O)N[C@@H](Cc1cnc[nH]1)C(=O)N[C@H](C(=O)N[C@@H](Cc1ccccc1)C(=O)NCC(N)=O)[C@@H](C)O)C(C)C | > 1000
5 | CC(C)[C@H](NC(=O)[C@H](Cc1cccc2ccccc12)NC(=O)[C@H](CC(=O)O)NC(=O)[C@H](C)NC(=O)[C@@H](N)CS)C(=O)N[C@@H](CS)C(=O)N[C@@H](Cc1ccc(O)cc1)C(=O)N[C@@H](Cc1c[nH]c2ccccc12)C(=O)N[C@@H](Cc1cnc[nH]1)C(=O)N[C@H](C(=O)N[C@@H](Cc1ccccc1)C(=O)NCC(N)=O)[C@@H](C)O | > 1000
6 | CC(=O)N[C@@H](CS)C(=O)N[C@@H](CCC(N)=O)C(=O)N[C@H](C(=O)N[C@@H](Cc1c[nH]c2ccccc12)C(=O)N[C@@H](CCC(N)=O)C(=O)N[C@@H](CS)C(=O)N[C@@H](Cc1ccc(O)cc1)C(=O)N[C@@H](Cc1c[nH]c2ccccc12)C(=O)N1CCC[C@@H]1C(=O)N[C@@H](CCC(=O)O)C(=O)N[C@@H](CC(N)=O)C(=O)NCC(N)=O)[C@@H](C)O | > 30000
7 | CC(=O)N[C@@H](CS)C(=O)N[C@@H](CCC(N)=O)C(=O)N[C@H](C(=O)N[C@@H](Cc1c[nH]c2ccccc12)C(=O)N[C@@H](CCC(N)=O)C(=O)N[C@@H](CS)C(=O)N[C@@H](Cc1ccc(O)cc1)C(=O)N[C@@H](Cc1c[nH]c2ccccc12)C(=O)N[C@@H](CCCNC(=N)N)C(=O)N[C@@H](CCCNC(=N)N)CC(=O)N[C@H](C(=O)N[C@@H](CC(N)=O)C(=O)NCC(=O)NCCOCC(=O)N[C@H](CCCCN)C(N)=O)C(C)C)[C@@H](C)O | 922
8 | CSCC[C@H](NC(=O)[C@H](CS)NC(=O)[C@H](Cc1cnc[nH]1)NC(=O)[C@@H](NC(=O)[C@H](CO)NC(=O)CNC(C)=O)C(C)C)C(=O)N[C@H](C(=O)N[C@@H](Cc1c[nH]c2ccccc12)C(=O)N[C@@H](CCC(=O)O)C(=O)N[C@@H](CS)C(=O)N[C@@H](Cc1ccc(O)cc1)C(=O)N[C@@H](Cc1c[nH]c2ccccc12)C(=O)N[C@@H](Cc1cnc[nH]1)C(=O)N[C@H](C(=O)N[C@@H](Cc1ccccc1)C(=O)NCC(N)=O)[C@@H](C)O)[C@@H](C)O (Ac-GSVHCMTWECYWHTFG-NH2) | 500 to 1000
9 | CC(=O)N[C@@H](CS)C(=O)N[C@@H](CCC(N)=O)C(=O)N1CCC[C@H]1C(=O)N[C@@H](Cc1c[nH]c2ccccc12)C(=O)N[C@@H](CCC(N)=O)C(=O)N[C@@H](CS)C(=O)N[C@@H](Cc1ccc(O)cc1)C(=O)N[C@@H](Cc1c[nH]c2ccccc12)C(=O)N[C@@H](CCC(C)C)C(=O)N[C@@H](CCC(=O)O)C(=O)N[C@@H](CC(N)=O)C(=O)NCC(N)=O (Ac-CQPWQCYW[hLeu]ENG-NH2) | > 10000
10 | CC(=O)N[C@@H](CS)C(=O)N[C@@H](C)C(=O)N[C@@H](CC(=O)O)C(=O)N[C@@H](Cc1c[nH]c2ccccc12)C(=O)N[C@H](C(=O)N[C@@H](CS)C(=O)N[C@@H](Cc1ccc(O)cc1)C(=O)N[C@@H](Cc1c[nH]c2ccccc12)C(=O)N[C@@H](CCCN)C(=O)N[C@H](C(=O)N[C@@H](Cc1ccccc1)C(=O)NCC(=O)NCCC(=O)N[C@H](CCCCN)C(N)=O)C1CCCCC1)C(C)C | > 30000
11 | CC(=O)N[C@@H](CS)C(=O)N[C@@H](CCCNC(=N)N)C(=O)N[C@H](C(=O)N[C@@H](Cc1c[nH]c2ccccc12)C(=O)N[C@@H](CCC(=O)O)C(=O)N[C@@H](CS)C(=O)N[C@@H](Cc1ccc(O)cc1)C(=O)N[C@@H](Cc1c[nH]c2ccccc12)C(=O)N[C@@H](Cc1cnc[nH]1)C(=O)N[C@@H](CCC(=O)O)C(=O)N[C@@H](CCC(N)=O)C(=O)N[C@@H](CO)C(N)=O)[C@@H](C)O (Ac-CRTWECYWHEQS-NH2) | < 500
12 | CC(=O)N[C@@H](CCC(N)=O)C(=O)N[C@H](C(=O)N[C@@H](Cc1c[nH]c2ccccc12)C(=O)N[C@@H](CCC(N)=O)C(=O)N[C@@H](CS)C(=O)N[C@@H](Cc1ccc(O)cc1)C(=O)N[C@@H](Cc1c[nH]c2ccccc12)C(=O)N(C)[C@@H](CC(C)C)C(=O)N[C@@H](CCC(=O)O)C(=O)N[C@@H](CC(N)=O)C(=O)NCC(N)=O)[C@@H](C)O | > 6000
13 | CC(=O)N[C@@H](CS)C(=O)N[C@@H](C)C(=O)N[C@@H](CC(=O)O)C(=O)N[C@@H](Cc1c[nH]c2ccccc12)C(=O)N[C@H](C(=O)N[C@@H](CS)C(=O)N[C@@H](Cc1ccc(O)cc1)C(=O)N[C@@H](Cc1c[nH]c2ccccc12)C(=O)N[C@@H](Cc1cnc[nH]1)C(=O)N[C@H](C(=O)N[C@@H](Cc1ccccc1)C(=O)NCC(=O)N[C@@H](CC(=O)O)C(=O)N[C@@H](CCCCNC(=O)COCC(=O)NCCCC[C@H](NC(=O)[C@H](CC(=O)O)NC(=O)CNC(=O)[C@H](Cc1ccccc1)NC(=O)[C@@H](NC(=O)[C@H](Cc1cnc[nH]1)NC(=O)[C@H](Cc1c[nH]c2ccccc12)NC(=O)[C@H](Cc1ccc(O)cc1)NC(=O)[C@H](CS)NC(=O)[C@@H](NC(=O)[C@H](Cc1c[nH]c2ccccc12)NC(=O)[C@H](CC(=O)O)NC(=O)[C@H](C)NC(=O)[C@H](CS)NC(C)=O)C(C)C)[C@@H](C)O)C(=O)O)C(=O)O)[C@@H](C)O)C(C)C | 1000 to 10000
14 | CC(C)[C@H](NC(=O)[C@H](Cc1c[nH]c2ccccc12)NC(=O)[C@@H](NC(=O)[C@H](Cc1cnc[nH]1)NC(=O)[C@@H](N)CS)[C@@H](C)O)C(=O)N[C@@H](CS)C(=O)N[C@@H](Cc1ccc(O)cc1)C(=O)N[C@@H](Cc1c[nH]c2ccccc12)C(=O)N[C@@H](Cc1cnc[nH]1)C(=O)N[C@@H](CCC(=O)O)C(=O)N[C@@H](Cc1ccccc1)C(=O)N[C@@H](CO)C(N)=O (H-CHTWVCYWHEFS-NH2) | > 1000
15 | CC(=O)NC(=O)[C@@H](CCCCNC(=O)COCC(=O)NCCCC[C@@H](NCCC(=O)N[C@@H](CS)C(=O)N[C@@H](C)C(=O)N[C@@H](CC(=O)O)C(=O)N[C@@H](Cc1c[nH]c2ccccc12)C(=O)N[C@H](C(=O)N[C@@H](CS)C(=O)N[C@@H](Cc1ccc(O)cc1)C(=O)N[C@@H](Cc1c[nH]c2ccccc12)C(=O)N[C@@H](Cc1cnc[nH]1)C(=O)N[C@H](C(=O)N[C@@H](Cc1ccccc1)C(=O)NCC(=O)O)[C@@H](C)O)C(C)C)C(=O)NC(C)=O)NCCC(=O)N[C@@H](CS)C(=O)N[C@@H](C)C(=O)N[C@@H](CC(=O)O)C(=O)N[C@@H](Cc1c[nH]c2ccccc12)C(=O)N[C@H](C(=O)N[C@@H](CS)C(=O)N[C@@H](Cc1ccc(O)cc1)C(=O)N[C@@H](Cc1c[nH]c2ccccc12)C(=O)N[C@@H](Cc1cnc[nH]1)C(=O)N[C@H](C(=O)N[C@@H](Cc1ccccc1)C(=O)NCC(=O)O)[C@@H](C)O)C(C)C | > 10000
16 | CC(C)[C@H](NC(=O)C[C@H](Cc1c[nH]c2ccccc12)NC(=O)[C@H](CC(=O)O)NC(=O)[C@H](C)NC(=O)[C@@H](N)CS)C(=O)N[C@@H](CS)C(=O)N[C@@H](Cc1ccc(O)cc1)C(=O)N[C@@H](Cc1c[nH]c2ccccc12)C(=O)N[C@@H](Cc1cnc[nH]1)C(=O)N[C@H](C(=O)N[C@@H](Cc1ccccc1)C(=O)NCC(N)=O)[C@@H](C)O | > 1000
17 | CC(=O)N[C@H]1CCSC[C@@H](C(=O)N[C@@H](Cc2ccc(OCCN)cc2)C(=O)N[C@@H](Cc2ccc3ccccc3c2)C(=O)N[C@@](C)(CCCCN)C(=O)N[C@@H](CCC(=O)O)C(=O)N[C@@H](CC(N)=O)C(=O)NCC(N)=O)NC(=O)[C@H](CCC(N)=O)NC(=O)[C@@H]2Cc3ccccc3CN2C(=O)[C@H]([C@@H](C)O)NC(=O)[C@H](CCC(N)=O)NC1=O | > 3000
18 | CC(=O)N[C@@H](CS)C(=O)N[C@@H](CCC(=O)O)C(=O)N[C@@H](CC(=O)O)C(=O)N[C@@H](Cc1c[nH]c2ccccc12)C(=O)N[C@@H](CCCCN)C(=O)N[C@@H](CS)C(=O)N[C@@H](Cc1ccc(O)cc1)C(=O)N[C@@H](Cc1c[nH]c2ccccc12)C(=O)N[C@@H](Cc1cnc[nH]1)C(=O)N[C@@H](CCCCN)C(=O)N[C@@H](Cc1ccc(O)cc1)C(=O)NCC(N)=O (Ac-CEDWKCYWHKYG-NH2) | < 500
